According to patent US4490388A, “Amidine compound and anticomplement agent comprising same” (Torii & Co., Ltd., priority 1981, dated 1984):
Like-named read-outs stand apart in the source and are kept apart here.

How the values were obtained:
complement = assay: Inhibition of complement mediated hemolysis; assay type: cell-based; details: read-out: Inhibition of complement mediated hemolysis (%)
Procedure: The complement mediated hemolysis is widely used as a means to determine the titration of complement. The principle of this method is based on the fact that hemolysis is caused by the activation of complement, when the latter is added to a complex (immune complex) of erythrocytes and the autibody thereof. The degree of hemolysis varies in proportion to the amount of complement added. Therefore, when a known amount of complement admixed with a C1 esterase inhibitor is used, the hemolysis must be suppressed in proportion to the inhibitory activity.
The anti-C1 esterase (C1r, C1s) activity was determined according to the method of Okamura et al. [K. Okamura, M. Muramatsu and B. Fujii, Biochem. Biophys. […] The inhibition of complement mediated hemolysis was determined according to the method of Baker et al. [B. R. Baker and E. H. Erickson, J. Med. Chem., 12, 408-414 (1969)].

Thrombin = Thrombin (Bos taurus, UniProt P00735); assay: Anti-thrombin activity (hydrolysis of TAME); assay type: biochemical
Procedure: (§1) The anti-trypsin, anti-plasmin, anti-kallikrein and anti-thrombin activities were determined according to the method of Muramatsu et al. [M. Muramatsu, T. Onishi, S. Makino, Y. Hayashi and S. Fujii, J. of Biochem., 58, 214 (1965)]. The data summarized in Table 1 are expressed in terms of molar concentration (id50) of the test compound which inhibits 50% of the activity of each enzyme to hydrolyze TAME (tosylarginine methyl ester). The compound No. corresponds to the compound number shown in Examples.

C1r = molecular target: T1, C1r (Homo sapiens, UniProt P00736); assay: Anti-C1 esterase activity, C1r (hydrolysis of AAME); assay type: biochemical; details: for inhibition at 10 µM: at 1×10^-5 M, read-out: Anti-C1 activity, C1r percent inhibition; for IC50: molar concentration inhibiting 50% of AAME hydrolysis, read-out: Anti-C1 activity, C1r id50
T1 sequence (P00736 464-705 limits assumed): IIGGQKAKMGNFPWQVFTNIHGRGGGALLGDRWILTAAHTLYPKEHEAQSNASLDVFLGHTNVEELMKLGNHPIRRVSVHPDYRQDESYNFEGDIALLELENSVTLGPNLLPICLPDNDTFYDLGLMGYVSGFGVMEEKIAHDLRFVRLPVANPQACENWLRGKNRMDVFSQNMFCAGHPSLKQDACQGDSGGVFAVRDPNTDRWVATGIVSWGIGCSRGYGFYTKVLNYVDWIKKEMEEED
T1 sequence (P00736 18-463 partner limits assumed): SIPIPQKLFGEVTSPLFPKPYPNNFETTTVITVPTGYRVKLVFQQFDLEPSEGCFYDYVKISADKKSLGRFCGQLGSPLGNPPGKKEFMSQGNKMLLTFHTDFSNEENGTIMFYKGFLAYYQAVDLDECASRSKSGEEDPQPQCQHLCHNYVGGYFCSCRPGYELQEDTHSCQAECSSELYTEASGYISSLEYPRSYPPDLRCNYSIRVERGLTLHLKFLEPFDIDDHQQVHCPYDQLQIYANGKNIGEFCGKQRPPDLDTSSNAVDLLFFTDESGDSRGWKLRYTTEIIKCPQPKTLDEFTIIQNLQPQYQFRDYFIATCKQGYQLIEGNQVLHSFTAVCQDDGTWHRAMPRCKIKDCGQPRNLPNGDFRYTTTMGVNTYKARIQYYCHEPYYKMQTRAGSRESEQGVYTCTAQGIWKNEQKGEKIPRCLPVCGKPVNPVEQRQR
Procedure: The anti-C1 esterase (C1r, C1s) activity was determined according to the method of Okamura et al. [K. Okamura, M. Muramatsu and B. Fujii, Biochem. Biophys. […] The figures in Table 2 have the following meanings:
C1r: Molar concentration of the test compound which inhibits 50% of the ability of C1r to hydrolyse AAME (acetylarginin methyl ester) (id50).

Plasmin = Plasmin (Homo sapiens, UniProt P00747); assay: Anti-plasmin activity (hydrolysis of TAME); assay type: biochemical
Procedure: as §1

Trypsin = molecular target: T2, Trypsin (Bos taurus, UniProt P00760); assay: Anti-trypsin activity (hydrolysis of TAME); assay type: biochemical
T2 sequence (P00760 24-246): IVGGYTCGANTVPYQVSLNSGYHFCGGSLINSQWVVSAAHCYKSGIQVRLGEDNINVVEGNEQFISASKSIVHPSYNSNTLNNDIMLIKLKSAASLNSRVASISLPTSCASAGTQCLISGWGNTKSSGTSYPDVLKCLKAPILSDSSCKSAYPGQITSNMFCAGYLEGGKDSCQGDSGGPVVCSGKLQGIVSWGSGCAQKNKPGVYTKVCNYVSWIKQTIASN
Procedure: as §1

[1] = molar concentration inhibiting 50% of TAME hydrolysis, read-out: id50, Plasmin
[2] = molar concentration inhibiting 50% of TAME hydrolysis, read-out: id50, Trypsin

Plasmin, sequence (P00747 581-810 limits assumed): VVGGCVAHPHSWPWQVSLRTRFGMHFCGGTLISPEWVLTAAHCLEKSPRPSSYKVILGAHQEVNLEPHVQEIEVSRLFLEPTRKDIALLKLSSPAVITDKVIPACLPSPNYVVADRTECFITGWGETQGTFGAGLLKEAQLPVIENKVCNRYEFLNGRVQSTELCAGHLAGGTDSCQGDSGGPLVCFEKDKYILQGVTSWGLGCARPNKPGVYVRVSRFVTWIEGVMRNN
Plasmin, sequence (P00747 97-580 partner limits assumed): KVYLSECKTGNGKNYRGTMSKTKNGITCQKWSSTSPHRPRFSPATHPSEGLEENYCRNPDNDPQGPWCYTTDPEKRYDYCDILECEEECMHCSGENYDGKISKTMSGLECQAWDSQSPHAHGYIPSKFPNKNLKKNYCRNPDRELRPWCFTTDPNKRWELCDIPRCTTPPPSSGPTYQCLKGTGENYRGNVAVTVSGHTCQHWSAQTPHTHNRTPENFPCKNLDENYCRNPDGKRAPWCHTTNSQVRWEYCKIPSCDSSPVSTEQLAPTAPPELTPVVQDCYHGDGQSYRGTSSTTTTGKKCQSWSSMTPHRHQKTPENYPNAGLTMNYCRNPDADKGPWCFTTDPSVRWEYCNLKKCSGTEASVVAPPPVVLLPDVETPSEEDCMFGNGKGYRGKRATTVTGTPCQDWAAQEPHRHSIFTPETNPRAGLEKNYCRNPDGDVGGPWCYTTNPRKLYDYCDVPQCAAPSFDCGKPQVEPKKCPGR

Row | SMILES | inhibition at 10 µM (complement; 1 × 10^-5 M) [%] | inhibition at 1 µM (complement; 1 × 10^-6 M) [%] | inhibition at 0.1 µM (complement) [%] | inhibition at 100 µM (complement) [%] | inhibition at 100 µM (complement; 1 × 10^-4 M) [%] | inhibition at 0.1 µM (complement; 1 × 10^-7 M) [%] | inhibition at 1 µM (complement) [%] | IC50 (Thrombin) [µM] | inhibition at 10 µM (C1r) [%] | IC50 (Plasmin; [1]) [µM] | IC50 (Trypsin; [2]) [µM] | IC50 (C1r) [µM] | inhibition at 10 µM (complement) [%] | IC50 (Plasmin) [µM] | IC50 (Trypsin) [µM]
1 | CC(=O)Oc1ccc(C=CC(=N)N)cc1 [Compound 1, 4-(β-amidinoethenyl)phenyl acetate] | 71 | 64 | 10 | 99 |  |  |  |  |  |  |  |  |  |  | 
2 | CC(C)CC(=O)Oc1ccc(C=CC(=N)N)cc1 [Compound 2, 4-(β-amidinoethenyl)phenyl isovalerate] | 90 |  |  |  | 99 | 8 | 30 |  |  |  |  |  |  |  | 
3 | CCCCCCC(=O)Oc1ccc(C=CC(=N)N)cc1 [Compound 3] | 75 |  |  | 98 |  | 0 |  | > 10 | 28 | > 10 | > 10 |  |  |  | 
4 | CC=CC=CC(=O)Oc1ccc(C=CC(=N)N)cc1 [Compound 4] | 99 |  | 12 | 100 |  |  | 86 |  |  | 0.9 | 0.4 | 5 |  |  | 
5 | N=C(N)C=Cc1ccc(OC(=O)C2CC2)cc1 [Compound 5, 4-(β-amidinoethenyl)phenyl cyclopropanecarboxylate] | 100 | 81 |  |  | 100 | 16 |  |  |  | 2 | 6 | 2 |  |  | 
6 | N=C(N)C=Cc1ccc(OC(=O)C2CCCCC2)cc1 [Compound 6] | 93 | 14 |  |  | 99 | 0 |  |  |  |  |  |  |  |  | 
7 | N=C(N)C=Cc1ccc(OC(=O)CCCCCNC(=O)OCc2ccccc2)cc1 [Compound 7, 4-(β-amidinoethenyl)phenyl 6-benzyloxycarbonylaminocaproate] | 64 | 13 |  |  | 98 | 14 |  | > 10 | 31 | 5 | 7 |  |  |  | 
8 | N=C(N)C=Cc1ccc(OC(=O)CCCCCN)cc1 [Compound 8, 4-(β-amidinoethenyl)phenyl 6-aminohexanoate] |  | 9 |  |  | 27 | 0 |  | > 10 |  | > 10 | 2 | > 10 | 15 |  | 
9 | N=C(N)C=Cc1ccc(OC(=O)CCCCCNC(=N)N)cc1 [Compound 9, 4-(β-amidinoethenyl)phenyl 6-guanidinocaproate] | 72 |  |  |  | 97 | 0 | 6 | > 10 | 28 | > 10 | 0.03 |  |  |  | 
10 | N=C(N)C=Cc1ccc(OC(=O)[C@H]2CC[C@H](CN)CC2)cc1 [Compound 10, 4-(β-amidinoethenyl)phenyl trans-4-aminomethylcyclohexanecarboxylate] | 99 | 98 |  |  | 100 | 74 |  | > 10 | 46 | 6 | 6 |  |  |  | 
11 | N=C(N)C=Cc1ccc(OC(=O)[C@H]2CC[C@H](CNC(=O)OCc3ccccc3)CC2)cc1 [Compound 11, 4-(β-amidinoethenyl)phenyl trans-4-benzyloxycarbonylaminomethylcyclohexanecarboxylate] | 99 | 82 | 25 | 95 |  |  |  | > 10 |  | 0.3 | 5 | 5 |  |  | 
12 | N=C(N)C=Cc1ccc(OC(=O)Cc2ccccc2)cc1 [Compound 13, 4-(β-amidinoethenyl)phenyl phenylacetate] |  |  | 0 | 99 |  |  | 6 | 5 | 21 |  |  |  | 31 | 10 | 1
13 | N=C(N)C=Cc1ccc(OC(=O)CCCc2ccccc2)cc1 [Compound 16, 4-(β-amidinoethenyl)phenyl 4-phenylbutyrate] | 34 | 0 |  | 96 |  | 0 |  |  |  |  |  |  |  |  | 
14 | N=C(N)C=Cc1ccc(OC(=O)C=Cc2ccccc2)cc1 [Compound 17, 4-(β-amidinoethenyl)phenyl cinnamate] | 97 |  |  |  | 93 | 58 | 83 |  |  |  |  |  |  |  | 
15 | Cc1ccccc1C(=O)Oc1ccc(C=CC(=N)N)cc1 [Compound 18] | 38 | 12 |  |  | 91 | 0 |  |  |  |  |  |  |  |  | 
16 | Cc1cccc(C(=O)Oc2ccc(C=CC(=N)N)cc2)c1 [Compound 19] | 98 | 65 | 37 |  | 95 |  |  |  |  |  |  |  |  |  | 
17 | Cc1ccc(C(=O)Oc2ccc(C=CC(=N)N)cc2)cc1C [Compound 21] |  | 37 |  |  | 87 | 22 |  |  |  |  |  |  | 88 |  | 
18 | COc1ccc(C(=O)Oc2ccc(C=CC(=N)N)cc2)cc1 [Compound 23] | 99 | 94 |  |  | 98 | 42 |  |  |  |  |  |  |  |  | 
19 | COc1ccc(C(=O)Oc2ccc(C=CC(=N)N)cc2)cc1OC [Compound 24] | 20 | 8 |  |  | 76 | 0 |  |  |  |  |  |  |  |  | 
20 | COc1ccc(CCC(=O)Oc2ccc(C=CC(=N)N)cc2)cc1 [Compound 25] | 0 | 0 |  |  | 62 | 0 |  |  |  |  |  |  |  |  | 
21 | N=C(N)C=Cc1ccc(OC(=O)c2ccc3c(c2)OCO3)cc1 [Compound 27] | 99 | 88 |  |  | 100 | 44 |  |  |  |  |  |  |  |  | 
22 | COC(=O)c1ccc(C(=O)Oc2ccc(C=CC(=N)N)cc2)cc1 [Compound 29] | 93 | 57 |  |  | 98 | 25 |  |  |  |  |  |  |  |  | 
23 | CC(=O)Nc1ccc(C(=O)Oc2ccc(C=CC(=N)N)cc2)cc1 [Compound 31] | 91 | 65 |  |  | 98 | 25 |  |  |  |  |  |  |  |  | 
24 | N=C(N)C=Cc1ccc(OC(=O)c2ccc(CNC(=O)OCc3ccccc3)cc2)cc1 [Compound 33] |  | 29 |  | 92 |  | 7 |  |  |  |  |  |  | 89 |  | 
25 | CCC(=Cc1ccc(NC(=N)N)cc1)C(=O)Oc1ccc(C=CC(=N)N)cc1 [Compound 36] |  | 8 |  |  | 93 | 0 |  | 5 |  | > 10 | 5 |  | 40 |  | 
26 | N=C(N)C=Cc1ccc(OC(=O)c2ccc([N+](=O)[O-])cc2)cc1 [Compound 37] | 99 | 95 |  |  | 100 | 94 |  |  |  |  |  |  |  |  | 
27 | N=C(N)C=Cc1ccc(OC(=O)CCCc2ccc([N+](=O)[O-])cc2)cc1 [Compound 38] | 76 | 27 |  |  | 98 | 7 |  |  |  |  |  |  |  |  | 
28 | N=C(N)C=Cc1ccc(OC(=O)C=Cc2ccccc2Cl)cc1 [Compound 40] |  | 0 |  |  | 15 | 0 |  |  |  |  |  |  | 3 |  | 
